Earlier results on 3 molecules are cited in patent US20140314729A1, “NUTRACEUTICAL FORMULATION FOR TREATMENT OF ELEVATED CHOLESTEROL AND CARDIOVASCULAR DISEASE” (Creative Medical Health Inc., priority 2013, published 2014).

In data set [1] the test system is mouse model. As to conditions: 150 mg/kg body weight for 10 days.
The test system of data set [2] is streptozotocin-treated rats. As to conditions: 80 μg/kg body weight daily for two weeks; P<0.001.
For data set [3], the system named is HIV-positive subjects. As to conditions: 1000 µg/day for eight weeks.
For data set [4], the system named is volunteers. To be noted: 1.6 mg daily, 42-day period.
Data set [5] has as its system patients with type 2 diabetes. As to conditions: oral 200 mg/day for 12 weeks.

`CC(C)(COP(=O)(O)O)[C@@H](O)C(=O)NCCC(=O)O` [phosphopantothenate]: in data set [1], the “content of triglycerides, total cholesterol and cholesterol esters in serum and adipose tissue” value is “decreased”.
Turning to chromium picolinate, in data set [2], the “average lowering of blood glucose compared with high-fat diet alone” value was 63%, the “lowering of total cholesterol compared with high-fat diet alone” value is 9.7% and the “lowering of triglycerides compared with high-fat diet alone” value is on record as 6.6%. Moreover, the “increase of mean rate of glucose disposal” value in data set [3] was 25%. In addition, the “mean rate of glucose disposal after treatment” value in data set [3] (from 4.41, range 3.19-12.78, p=0.03) is 6.51 mg/kg LBM/min. Also, in data set [4], the “decrease in LDL cholesterol” value is 10.5% and the “decrease in total cholesterol” value is 7%. Moreover, the “LDL cholesterol after treatment” value in data set [4] (from 200) is 178 mg per dl. Further, the “total cholesterol after treatment” value in data set [4] (from 276) is listed as 256 mg per dl.
Regarding `COC1=C(OC)C(=O)C(C/C=C(\C)CC/C=C(\C)CC/C=C(\C)CC/C=C(\C)CC/C=C(\C)CC/C=C(\C)CC/C=C(\C)CC/C=C(\C)CC/C=C(\C)CCC=C(C)C)=C(C)C1=O` [coenzyme Q10], the “brachial artery flow-mediated dilation” value in data set [5] is listed as “increased”.
